The values that follow come from ChEMBL document CHEMBL5247608, “HIV-1 gp120-CXCR4 recognition probed with synthetic nanomolar affinity D-peptides containing fragments of gp120 V3 loop” (Eur J Med Chem, 2022).

The test system of series [1] is Human immunodeficiency virus 1. Put plainly: Antiviral activity against HIV-1 X4 NL4-3 infected in human PBMC assessed as inhibition of viral replication by measuring reduction in p24 antigen level measured after 5 days by ELISA. In kind it is functional, organism-based. Particulars: Human immunodeficiency virus 1, X4 NL4-3, PBMC, 120 h.
For series [2], the system named is Human immunodeficiency virus 1. Put plainly: Antiviral activity against HIV-1 R5 Bal-6 infected in human PBMC assessed as inhibition of viral replication by measuring reduction in p24 antigen level at 0.1 to 10 uM measured after 5 days by ELISA. The format is functional, organism-based. Particulars: dose 0.1-10 µM, time 5.0 day.
Series [3] concerns the target T1, C-X-C chemokine receptor type 4 (Homo sapiens, UniProt P61073). Put plainly: Displacement of 12G5 mAb from CXCR4 (unknown origin) expressed in CHO cells incubated for 40 mins by spectrophotometric method. In kind it is cell-based.
Series [4] can be described thus: Cytotoxicity against human PBMC assessed as reduction in cell viability at 0.016 to 10 uM incubated for 5 days by CellTiter-Blue assay. In kind it is toxicity, cell-based. Particulars: 120 h, dose 0.016-10 µM, time 5 day.
Series [5] deals with Human immunodeficiency virus 1. As to the kind of experiment: Antiviral activity against HIV-1 X4 NL4-3 infected in human PBMC assessed as inhibition of viral replication by measuring reduction in p24 antigen level at 10 uM measured after 5 days by ELISA. The format is functional, organism-based. Particulars: time 5.0 day.
Series [6] concerns the target T1, C-X-C chemokine receptor type 4. Put plainly: Antagonist activity against CXCR4 in human SUP-T1 cells assessed as inhibition of SDF-1alpha-induced intracellular calcium mobilization by Fluo-4AM dye based fluorescence analysis. In kind it is cell-based. Particulars: filed as antagonist, dose 0.01-10 µM.
Series [7] concerns C-X-C chemokine receptor type 4 (Homo sapiens), P61073 [T117A]. Put plainly: Displacement of 12G5 mAb from CXCR4 T117A mutant (unknown origin) expressed in CHO cells at 200 nM incubated for 40 mins by spectrophotometric method. The format is cell-based. The conditions noted are these: filed as antagonist.
For series [8], the system named is C-X-C chemokine receptor type 4 (Homo sapiens), P61073 [Y45A]. Put plainly: Displacement of 12G5 mAb from CXCR4 Y45A mutant (unknown origin) expressed in CHO cells at 200 nM incubated for 40 mins by spectrophotometric method. Particulars: filed as antagonist. In kind it is cell-based.
The test system of series [9] is C-X-C chemokine receptor type 4 (Homo sapiens), P61073 [E288D]. As to the kind of experiment: Displacement of 12G5 mAb from CXCR4 E288D mutant (unknown origin) expressed in CHO cells at 200 nM incubated for 40 mins by spectrophotometric method. In kind it is cell-based.
The test system of series [10] is C-X-C chemokine receptor type 4 (Homo sapiens), P61073 [W94A]. As to the kind of experiment: Displacement of 12G5 mAb from CXCR4 W94A mutant (unknown origin) expressed in CHO cells at 200 nM incubated for 40 mins by spectrophotometric method. In kind it is cell-based.
Series [11] relates to C-X-C chemokine receptor type 4 (Homo sapiens), P61073 [N119A]. Put plainly: Displacement of 12G5 mAb from CXCR4 N119A mutant (unknown origin) expressed in CHO cells at 200 nM incubated for 40 mins by spectrophotometric method. The format is cell-based.
Series [12] deals with C-X-C chemokine receptor type 4 (Homo sapiens), P61073 [D171A]. As to the kind of experiment: Displacement of 12G5 mAb from CXCR4 D171A mutant (unknown origin) expressed in CHO cells at 200 nM incubated for 40 mins by spectrophotometric method. In kind it is cell-based. The conditions noted are these: filed as antagonist.
In series [13] the target is T1, C-X-C chemokine receptor type 4. Put plainly: Antagonist activity against EGFP-tagged CXCR4 (unknown origin) transfected in CHO cells assessed as inhibition of SDF-1alpha-induced receptor internalization at 0.01 to 10 uM preincubated for 10 mins followed by SDF-1alpha addition by confocal microscopy. In kind it is cell-based. The conditions noted are these: filed as antagonist, dose 0.01-10 µM.

The subject of series [14] is C-X-C chemokine receptor type 4 (Homo sapiens), P61073 [H113A]. As to the kind of experiment: Displacement of 12G5 mAb from CXCR4 H113A mutant (unknown origin) expressed in CHO cells at 200 nM incubated for 40 mins by spectrophotometric method. In kind it is cell-based.
The subject of series [15] is C-X-C chemokine receptor type 4 (Homo sapiens), P61073 [D193A]. Put plainly: Displacement of 12G5 mAb from CXCR4 D193A mutant (unknown origin) expressed in CHO cells at 200 nM incubated for 40 mins by spectrophotometric method. The format is cell-based.
Series [16] relates to C-X-C chemokine receptor type 4 (Homo sapiens), P61073 [W161A]. As to the kind of experiment: Displacement of 12G5 mAb from CXCR4 W161A mutant (unknown origin) expressed in CHO cells at 200 nM incubated for 40 mins by spectrophotometric method. The format is cell-based.
In series [17] the test system is Human immunodeficiency virus 1. As to the kind of experiment: Antiviral activity against HIV-1 R5 Bal-6 infected in human PBMC assessed as inhibition of viral replication by measuring reduction in p24 antigen level at 10 uM measured after 5 days by ELISA. The format is functional, organism-based. Particulars: time 5.0 day.
Series [18] relates to C-X-C chemokine receptor type 4 (Homo sapiens), P61073 [F87A]. As to the kind of experiment: Displacement of 12G5 mAb from CXCR4 F87A mutant (unknown origin) expressed in CHO cells at 200 nM incubated for 40 mins by spectrophotometric method. The format is cell-based.
Series [19] deals with T1, C-X-C chemokine receptor type 4. As to the kind of experiment: Antagonist activity against CXCR4 in human SUP-T1 cells assessed as inhibition of SDF-1alpha-induced intracellular calcium mobilization at 10 uM by Fluo-4AM dye based fluorescence analysis. The format is cell-based. Particulars: filed as antagonist.
The subject of series [20] is C-X-C chemokine receptor type 4 (Homo sapiens), P61073 [W195A]. As to the kind of experiment: Displacement of 12G5 mAb from CXCR4 W195A mutant (unknown origin) expressed in CHO cells at 200 nM incubated for 40 mins by spectrophotometric method. In kind it is cell-based.
In series [21] the target is T1, C-X-C chemokine receptor type 4. Put plainly: Antagonist activity against EGFP-tagged CXCR4 (unknown origin) transfected in CHO cells assessed as inhibition of SDF-1alpha-induced receptor internalization at 10 uM preincubated for 10 mins followed by SDF-1alpha addition by confocal microscopy. The format is cell-based. The conditions noted are these: filed as antagonist.

Series [22] has the same target. As to the kind of experiment: Antagonist activity against CXCR4 in human SUP-T1 cells assessed as inhibition of SDF-1alpha-induced cell migration preincubated with cells for 30 mins followed by incubation with SDF-1alpha for 3 hrs by CellTiter-96 reagent based transwell assay. Particulars: filed as antagonist, time 210.0 min.
Series [23] shares this target. As to the kind of experiment: Antagonist activity against CXCR4 in human SUP-T1 cells assessed as inhibition of SDF-1alpha-induced cell migration at 10 uM preincubated with cells for 30 mins followed by incubation with SDF-1alpha for 3 hrs by CellTiter-96 reagent based transwell assay. Particulars: filed as antagonist, time 210.0 min.
For series [24], the system named is C-X-C chemokine receptor type 4 (Homo sapiens), P61073 [E288A]. As to the kind of experiment: Displacement of 12G5 mAb from CXCR4 E288A mutant (unknown origin) expressed in CHO cells at 200 nM incubated for 40 mins by spectrophotometric method. The format is cell-based.
Series [25] concerns C-X-C chemokine receptor type 4 (Homo sapiens), P61073 [D262N]. As to the kind of experiment: Displacement of 12G5 mAb from CXCR4 D262N mutant (unknown origin) expressed in CHO cells at 200 nM incubated for 40 mins by spectrophotometric method. In kind it is cell-based.

The source made the active and inactive calls. The rule behind the calls is not given here.

T1 sequence (P61073 whole entry): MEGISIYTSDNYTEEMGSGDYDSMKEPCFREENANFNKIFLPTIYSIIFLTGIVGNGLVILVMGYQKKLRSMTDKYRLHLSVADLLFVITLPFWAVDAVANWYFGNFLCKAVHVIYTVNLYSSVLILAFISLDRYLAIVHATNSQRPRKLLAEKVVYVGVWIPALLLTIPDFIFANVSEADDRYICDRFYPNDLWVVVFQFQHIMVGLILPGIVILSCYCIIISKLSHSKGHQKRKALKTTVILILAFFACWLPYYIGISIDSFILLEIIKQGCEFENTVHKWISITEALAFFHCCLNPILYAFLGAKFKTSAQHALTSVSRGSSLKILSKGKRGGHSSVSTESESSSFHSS
C-X-C chemokine receptor type 4 (Homo sapiens), P61073 [D171A], sequence (P61073 whole entry D171A): as the sequence (P61073 whole entry) above, with D171A counted along it
C-X-C chemokine receptor type 4 (Homo sapiens), P61073 [D193A], sequence (P61073 whole entry D193A): as the sequence (P61073 whole entry) above, with D193A counted along it
C-X-C chemokine receptor type 4 (Homo sapiens), P61073 [W161A], sequence (P61073 whole entry W161A): as the sequence (P61073 whole entry) above, with W161A counted along it
C-X-C chemokine receptor type 4 (Homo sapiens), P61073 [F87A], sequence (P61073 whole entry F87A): as the sequence (P61073 whole entry) above, with F87A counted along it
C-X-C chemokine receptor type 4 (Homo sapiens), P61073 [E288A], sequence (P61073 whole entry E288A): as the sequence (P61073 whole entry) above, with E288A counted along it
C-X-C chemokine receptor type 4 (Homo sapiens), P61073 [H113A], sequence (P61073 whole entry H113A): as the sequence (P61073 whole entry) above, with H113A counted along it
C-X-C chemokine receptor type 4 (Homo sapiens), P61073 [Y45A], sequence (P61073 whole entry Y45A): as the sequence (P61073 whole entry) above, with Y45A counted along it
C-X-C chemokine receptor type 4 (Homo sapiens), P61073 [W94A], sequence (P61073 whole entry W94A): as the sequence (P61073 whole entry) above, with W94A counted along it
C-X-C chemokine receptor type 4 (Homo sapiens), P61073 [T117A], sequence (P61073 whole entry T117A): as the sequence (P61073 whole entry) above, with T117A counted along it
C-X-C chemokine receptor type 4 (Homo sapiens), P61073 [E288D], sequence (P61073 whole entry E288D): as the sequence (P61073 whole entry) above, with E288D counted along it
C-X-C chemokine receptor type 4 (Homo sapiens), P61073 [N119A], sequence (P61073 whole entry N119A): as the sequence (P61073 whole entry) above, with N119A counted along it
C-X-C chemokine receptor type 4 (Homo sapiens), P61073 [W195A], sequence (P61073 whole entry W195A): as the sequence (P61073 whole entry) above, with W195A counted along it
C-X-C chemokine receptor type 4 (Homo sapiens), P61073 [D262N], sequence (P61073 whole entry D262N): as the sequence (P61073 whole entry) above, with D262N counted along it

Consider `CC(C)C[C@@H](N)C(=O)NCC(=O)N[C@H](C)C(=O)N[C@H](CO)C(=O)N[C@H](Cc1c[nH]c2ccccc12)C(=O)N[C@H](Cc1cnc[nH]1)C(=O)N[C@H](CCCNC(=N)N)C(=O)N1CCC[C@@H]1C(=O)N[C@H](CC(=O)O)C(=O)N[C@H](CCCCN)C(=O)N[C@H](CCCCN)C(=O)N[C@H](CCCNC(=N)N)C(=O)N(CCCCCC(=O)O)[C@H](CCCCN[C@@H](CS)C(=O)N[C@@H](C(=O)N[C@H](CCCNC(=N)N)C(=O)N1CCC[C@@H]1C(=O)N[C@H](CC(N)=O)C(=O)N[C@H](CC(N)=O)C(=O)N[C@H](CC(N)=O)C(=O)N[C@@H](C(=O)N[C@H](CCCCN)C(=O)N[C@H](CCCNC(=N)N)C(N)=O)[C@@H](C)O)[C@@H](C)O)C(N)=O`, for which the 50% inhibitory concentration (IC50) in series [1] is 10900 nM; in series [3], 26.8 nM. In addition, the outcome in [2] was inactive. Besides, in series [4], the Activity entry is given as “Non-Toxic”. The outcome in series [5] was Active.

As for `CC(C)C[C@@H](N)C(=O)NCC(=O)N[C@H](C)C(=O)N[C@H](CO)C(=O)N[C@H](Cc1c[nH]c2ccccc12)C(=O)N[C@H](Cc1cnc[nH]1)C(=O)N[C@H](CCCNC(=N)N)C(=O)N1CCC[C@@H]1C(=O)N[C@H](CC(=O)O)C(=O)N[C@H](CCCCN)C(=O)N[C@H](CCCCN)C(=O)N[C@H](CCCNC(=N)N)C(=O)N(CCCCCC(=O)O)[C@H](CCCCN)C(=O)N[C@H](CCCNC(=N)N)C(=O)N[C@H](CCCCN)C(=O)N[C@H](CCC(N)=O)C(=O)N[C@H](CCCNC(=N)N)C(=O)NCC(=O)N1CCC[C@@H]1C(=O)NCC(=O)N[C@H](CCCNC(=N)N)C(=O)N[C@H](C)C(=O)N[C@H](Cc1ccccc1)C(N)=O`, the inhibition entry in series [6] is “Dose-Dependent Effect”; in series [19] it was 100%; in [21] it was 100%; in [22] it was “Dose-Dependent Effect”; in series [23] it was 100%. Also, the inhibition result in [7], in [8], in series [12] and in [13] was “Active” each time. Moreover, the inhibition entry in series [9], in [10], in series [11], in series [14], in series [15] and in [16] was “inactive” throughout. The inhibition entry in series [18], in series [20], in [24] and in series [25] was “inactive” throughout. This compound also registered an IC50 in [3] of 43.4 nM. In addition, the outcome in series [17] and in [5] was Active. The Activity result in series [4] is recorded as “Non-Toxic”.
